# Reference: ChEMBL document CHEMBL5370591, “A Potent and Narrow-Spectrum Antibacterial against Clostridioides difficile Infection” (J Med Chem, 2023)
# The source made the active and inactive calls. No cut-off for these calls is given here.
# Columns and labels:
# Clostridioides difficile [1] = assay: Antibacterial activity against Clostridium difficile ATCC 43255 measured after 48 hrs by two fold serial dilution method; format: functional
# Clostridioides difficile [2] = assay: Antibacterial activity against Clostridium difficile BAA-1870 assessed as inhibition of bacterial growth by broth microdilution method; format: functional
# Clostridioides difficile [3] = assay: Antibacterial activity against Clostridium difficile BAA-1803 assessed as inhibition of bacterial growth by broth microdilution method; format: functional
# Clostridioides difficile [4] = assay: Antibacterial activity against Clostridium difficile 26675 assessed as inhibition of bacterial growth by broth microdilution method; format: functional
# Clostridioides difficile [5] = assay: Antibacterial activity against Clostridium difficile 23828 assessed as inhibition of bacterial growth by broth microdilution method; format: functional
# Clostridioides difficile [6] = assay: Antibacterial activity against Clostridium difficile 24531 assessed as inhibition of bacterial growth by broth microdilution method; format: functional
# Staphylococcus aureus [7] = assay: Antibacterial activity against vancomycin-resistant Staphylococcus aureus clinical isolate 1 assessed as inhibition of bacterial growth by broth microdilution method; format: functional
# Staphylococcus aureus [8] = assay: Antibacterial activity against vancomycin-resistant Staphylococcus aureus clinical isolate 2 assessed as inhibition of bacterial growth by broth microdilution method; format: functional
# [9] = tested on: Staphylococcus epidermidis; assay: Antibacterial activity against Staphylococcus epidermidis ATCC 35547 assessed as inhibition of bacterial growth by broth microdilution method; format: functional
# [10] = tested on: Staphylococcus haemolyticus; assay: Antibacterial activity against Staphylococcus haemolyticus ATCC 29970 assessed as inhibition of bacterial growth by broth microdilution method; format: functional
# Streptococcus pyogenes = assay: Antibacterial activity against Streptococcus pyogenes ATCC 49399 assessed as inhibition of bacterial growth by broth microdilution method; format: functional
# Bacillus cereus = assay: Antibacterial activity against Bacillus cereus ATCC 13061 assessed as inhibition of bacterial growth by broth microdilution method; format: functional
# Bacillus licheniformis = assay: Antibacterial activity against Bacillus licheniformis ATCC 12759 assessed as inhibition of bacterial growth by broth microdilution method; format: functional
# Enterococcus faecalis [11] = assay: Antibacterial activity against Enterococcus faecalis ATCC 29212 assessed as inhibition of bacterial growth by broth microdilution method; format: functional
# Enterococcus faecalis [12] = assay: Antibacterial activity against vancomycin susceptible Enterococcus faecalis 201 assessed as inhibition of bacterial growth by broth microdilution method; format: functional
# Enterococcus faecalis [13] = assay: Antibacterial activity against vancomycin resistant Enterococcus faecalis 99 assessed as inhibition of bacterial growth by broth microdilution method; format: functional
# Enterococcus faecium [14] = assay: Antibacterial activity against vancomycin susceptible Enterococcus faecium119-39A assessed as inhibition of bacterial growth by broth microdilution method; format: functional; conditions: 119-39A
# Enterococcus faecium [15] = assay: Antibacterial activity against vancomycin resistant Enterococcus faecium 106 assessed as inhibition of bacterial growth by broth microdilution method; format: functional
# Enterococcus faecium [16] = assay: Antibacterial activity against Enterococcus faecium NCTC 7171 assessed as inhibition of bacterial growth by broth microdilution method; format: functional
# Bifidobacterium longum = assay: Antibacterial activity against Bifidobacterium longum HM-846 assessed as inhibition of bacterial growth by broth microdilution method; format: functional
# Corynebacterium sp. = assay: Antibacterial activity against Corynebacterium sp. HM-784 assessed as inhibition of bacterial growth by broth microdilution method; format: functional
# Klebsiella pneumoniae = assay: Antibacterial activity against Klebsiella pneumoniae ATCC700603 assessed as inhibition of bacterial growth by broth microdilution method; format: functional
# Acinetobacter baumannii = assay: Antibacterial activity against Acinetobacter baumannii ATCC17961 assessed as inhibition of bacterial growth by broth microdilution method; format: functional
# Pseudomonas aeruginosa = assay: Antibacterial activity against Pseudomonas aeruginosa ATCC27853 assessed as inhibition of bacterial growth by broth microdilution method; format: functional
# Klebsiella aerogenes = assay: Antibacterial activity against Klebsiella aerogenes ATCC35029 assessed as inhibition of bacterial growth by broth microdilution method; format: functional
# Escherichia coli = assay: Antibacterial activity against Escherichia coli ATCC25922 assessed as inhibition of bacterial growth by broth microdilution method; format: functional
# Clostridioides difficile [17] = assay: Antibacterial activity against Clostridium difficile ATCC 43255 assessed as damage in cell wall at 8 time MIC incubated for 24 hrs by scanning electron microscopy based analysis; format: functional, organism-based
# THP-1 = assay: Cytotoxicity against human THP-1 cells assessed as increase in LDH release incubate for 24 hrs by trypan-blue staining based analysis; format: functional, cell-based; conditions: THP-1, 24 h
# [18] = Selectivity ratio of IC50 for human THP-1 cells to MIC for Clostridium difficile ATCC 43255; format: toxicity
smiles,measurement,setting,value
Oc1ccc(-c2nc(-c3ccc(Oc4ccccc4CBr)cc3)no2)cc1,MIC,Clostridioides difficile [1],8 µg/mL
Fc1ccc2oc3ccc(-c4noc(-c5ccc6[nH]ccc6c5)n4)cc3c2c1,MIC,Clostridioides difficile [1],> 128 µg/mL
Nc1cc(-c2noc(-c3ccc(O)cc3)n2)ccc1Oc1ccccc1,MIC,Clostridioides difficile [1],> 128 µg/mL
Fc1ccccc1-c1noc(-c2ccc3[nH]ccc3c2)n1,MIC,Clostridioides difficile [1],> 128 µg/mL
CN1CCC(Oc2ccc(-c3noc(-c4nc([N+](=O)[O-])c[nH]4)n3)cc2)C1.Cl (stereo not drawn),MIC,Clostridioides difficile [1],> 128 µg/mL
Cc1ncc([N+](=O)[O-])n1CCO [METRONIDAZOLE],MIC,Clostridioides difficile [2],0.5 µg/mL
same,MIC,Clostridioides difficile [3],0.5 µg/mL
same,MIC,Clostridioides difficile [4],4 µg/mL
same,MIC,Clostridioides difficile [5],0.5 µg/mL
same,MIC,Clostridioides difficile [6],0.5 µg/mL
same,MIC,Staphylococcus aureus [7],> 256 µg/mL
same,MIC,Staphylococcus aureus [8],> 256 µg/mL
same,MIC,[9],> 128 µg/mL
same,MIC,[10],> 256 µg/mL
same,MIC,Streptococcus pyogenes,> 128 µg/mL
same,MIC,Bacillus cereus,> 256 µg/mL
same,MIC,Bacillus licheniformis,> 256 µg/mL
same,MIC,Enterococcus faecalis [11],> 256 µg/mL
same,MIC,Enterococcus faecalis [12],> 256 µg/mL
same,MIC,Enterococcus faecalis [13],> 256 µg/mL
same,MIC,Enterococcus faecium [14],> 16 µg/mL
same,MIC,Enterococcus faecium [15],> 16 µg/mL
same,MIC,Enterococcus faecium [16],> 128 µg/mL
same,MIC,Bifidobacterium longum,0.05 µg/mL
same,MIC,Corynebacterium sp.,> 32 µg/mL
same,MIC,Klebsiella pneumoniae,> 128 µg/mL
same,MIC,Acinetobacter baumannii,> 128 µg/mL
same,MIC,Pseudomonas aeruginosa,> 128 µg/mL
same,MIC,Klebsiella aerogenes,> 128 µg/mL
same,MIC,Escherichia coli,> 128 µg/mL
same,Activity,Clostridioides difficile [17],inactive
Oc1ccc(-c2nc(-c3ccc(OC4CCCCC4Br)cc3)no2)cc1 (stereo not drawn),MIC,Clostridioides difficile [1],2 µg/mL
same,IC50,THP-1,8.4 µg/mL
same,selectivity ratio,[18],4
Oc1ccc(-c2nc(-c3ccc(Oc4ccc(C(F)(F)F)cc4)cc3)no2)cc1F,MIC,Clostridioides difficile [1],4 µg/mL
same,IC50,THP-1,5.2 µg/mL
same,selectivity ratio,[18],1
Cl.NCCCOc1ccc(-c2noc(-c3ccc(O)cc3)n2)cc1,MIC,Clostridioides difficile [1],64 µg/mL
c1cc2cc(-c3nc(-c4ccc5c(c4)CCN5)no3)ccc2[nH]1,MIC,Clostridioides difficile [1],> 128 µg/mL
Oc1ccc(-c2nc(N3CCN(c4cccc(Cl)c4)CC3)no2)cc1,MIC,Clostridioides difficile [1],> 128 µg/mL
Oc1nc(-c2ccc(OC3CCCC3)cc2)no1,MIC,Clostridioides difficile [1],64 µg/mL
C[C@@H](N)c1nc(-c2ccc(OC3CCCC3)cc2)no1,MIC,Clostridioides difficile [1],> 128 µg/mL
O=[N+]([O-])c1cn(CCO)c(-c2nc(-c3ccc(OC4CCCC4)cc3)no2)n1,MIC,Clostridioides difficile [1],> 128 µg/mL
CCOc1ccc(-c2noc(-c3ccc(O)cc3)n2)cc1,MIC,Clostridioides difficile [1],> 128 µg/mL
Oc1ccc(-c2nnc(-c3ccc(OC4CCCC4)cc3)o2)cc1,MIC,Clostridioides difficile [1],> 128 µg/mL
O=[N+]([O-])c1ccccc1Oc1ccc(-c2noc(-c3ccc(O)cc3)n2)cc1,MIC,Clostridioides difficile [1],4 µg/mL
same,IC50,THP-1,16 µg/mL
same,selectivity ratio,[18],3
Oc1ccc(-c2nc(-c3ccc4oc5ccc(F)cc5c4c3)no2)cc1,MIC,Clostridioides difficile [1],> 128 µg/mL
Oc1ccc(-n2cc(-c3ccc(Oc4ccccc4)cc3)nn2)cc1,MIC,Clostridioides difficile [1],> 128 µg/mL
Oc1ccc(-c2nc(-c3ccc4c(c3)OCO4)no2)cc1,MIC,Clostridioides difficile [1],> 128 µg/mL
Oc1ccc(-c2nc(-c3ccc(Oc4ccc(C(F)(F)F)cc4)nc3)no2)cc1,MIC,Clostridioides difficile [1],> 128 µg/mL
O=C(Nc1c[nH]nc1-c1nc(-c2ccc(Oc3ccc(C(F)(F)F)cc3)cc2)no1)c1ccccn1,MIC,Clostridioides difficile [1],> 128 µg/mL
COc1ccc(-c2nc(-c3ccc(Oc4ccc(C(F)(F)F)cc4)cc3)no2)cc1OC,MIC,Clostridioides difficile [1],> 128 µg/mL
O=[N+]([O-])c1c[nH]nc1-c1nc(-c2ccc(Oc3ccccc3)cc2)no1,MIC,Clostridioides difficile [1],> 128 µg/mL
O=C1C[C@@H](c2nc(-c3ccc(Oc4ccc(C(F)(F)F)cc4)cc3)no2)CN1,MIC,Clostridioides difficile [1],> 128 µg/mL
Oc1ccc(-c2nc(-c3ccc(OC4CCOC4)cc3)no2)cc1 (stereo not drawn),MIC,Clostridioides difficile [1],> 128 µg/mL
Clc1nc(-c2ccc(OC3CCCC3)cc2)no1,MIC,Clostridioides difficile [1],> 128 µg/mL
